Here are results for nine molecules from patent publication US20220402950A1, “SUBSTITUTED BENZIMIDAZOLES AS PAD4 INHIBITORS” (BRISTOL-MYERS SQUIBB COMPANY, priority 2018, published 2022).

Chain of human PAD4 (hPAD4) (Q9UM07 whole entry): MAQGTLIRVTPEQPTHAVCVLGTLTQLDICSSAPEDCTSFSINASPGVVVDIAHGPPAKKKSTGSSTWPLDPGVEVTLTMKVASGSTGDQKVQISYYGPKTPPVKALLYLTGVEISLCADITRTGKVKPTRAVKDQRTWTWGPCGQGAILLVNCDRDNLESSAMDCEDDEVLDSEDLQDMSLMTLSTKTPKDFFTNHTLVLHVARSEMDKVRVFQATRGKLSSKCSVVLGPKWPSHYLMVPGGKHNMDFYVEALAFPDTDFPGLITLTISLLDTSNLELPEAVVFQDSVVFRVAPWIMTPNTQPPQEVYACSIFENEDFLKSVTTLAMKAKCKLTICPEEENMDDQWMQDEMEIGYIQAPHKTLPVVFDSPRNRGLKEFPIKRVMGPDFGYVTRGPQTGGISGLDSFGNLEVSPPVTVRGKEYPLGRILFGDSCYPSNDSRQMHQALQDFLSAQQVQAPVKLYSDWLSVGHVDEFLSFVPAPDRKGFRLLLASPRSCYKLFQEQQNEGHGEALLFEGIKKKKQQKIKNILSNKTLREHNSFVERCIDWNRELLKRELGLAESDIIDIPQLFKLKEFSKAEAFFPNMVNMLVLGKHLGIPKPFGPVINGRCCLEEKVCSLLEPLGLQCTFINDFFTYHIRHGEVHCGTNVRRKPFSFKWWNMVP

The target in this test is human PAD4 (hPAD4) (Homo sapiens, UniProt Q9UM07). Briefly: RFMS Human PAD4 Functional Assay. The note with it: hPAD4 RFMS IC50, human PAD4, rapid-fire mass spectrum (RFMS) assay; 5 nM hPAD4, 250 μM BAEE. It is filed as biochemical. An outline of the steps:
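RapidFire ESI-MS quantification, normalised to a modified-citrulline internal standard, after phenyl glyoxal (final 4 mM) derivatisation of the TCA-quenched reaction. The enzyme (10 nM) sat 30 min with compound (up to 50 μM final) before 500 μM BAEE (as added) started a 90 min, 37 °C reaction. Buffer: HEPES pH 7.5, 50 μM calcium, 5 μM TPEN.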
Molecule `COc1cc(C(=O)N2CC3CCC2C3N)cc2nc(-c3cc4cccc(NCC5CNC5)c4n3CC3CC3)n(C)c12` (stereo not drawn) [Example 159, (7-amino-2-azabicyclo[2.2.1]heptan-2-yl)(2-(7-((azetidin-3-ylmethyl)amino)-1-(cyclopropylmethyl)-1H-indol-2-yl)-7-methoxy-1-methyl-1H-benzo[d]imidazol-5-yl)methanone] returned an IC50 of 0.15 µM.
To `COc1cc(C(=O)N2CC3CCC2[C@@H]3N)cc2nc(-c3cc4cccc(Nc5ccnc(C(N)=O)n5)c4n3CC3CC3)n(C)c12` (stereo partly drawn) [Example 160, 4-((2-(5-((7R)-7-amino-2-azabicyclo[2.2.1]heptane-2-carbonyl)-7-methoxy-1-methyl-1H-benzo[d]imidazol-2-yl)-1-(cyclopropylmethyl)-1H-indol-7-yl)amino)pyrimidine-2-carboxamide] belongs 0.11 µM; to `COc1cc(C(=O)N2CC3CCC2[C@@H]3N)cc2nc(-c3cc4cccc(Nc5cc(C)nc(C)c5)c4n3CC3CC3)n(C)c12` (stereo partly drawn) [Example 161, ((7R)-7-amino-2-azabicyclo[2.2.1]heptan-2-yl)(2-(1-(cyclopropylmethyl)-7-((2,6-dimethylpyridin-4-yl)amino)-1H-indol-2-yl)-7-methoxy-1-methyl-1H-benzo[d]imidazol-5-yl)methanone], 0.103 µM.
`CCOC(=O)c1ccc(Nc2cccc3cc(-c4nc5cc(C(=O)N6CC7CCC6[C@@H]7N)cc(OC)c5n4C)n(CC4CC4)c23)cc1` (stereo partly drawn) [Example 162, ethyl 4-((2-(5-((7R)-7-amino-2-azabicyclo[2.2.1]heptane-2-carbonyl)-7-methoxy-1-methyl-1H-benzo[d]imidazol-2-yl)-1-(cyclopropylmethyl)-1H-indol-7-yl)amino)benzoate] returned an IC50 of 0.098 µM.
The value for `COc1cc(C(=O)N2CC3CCC2[C@@H]3N)cc2nc(-c3cc4cccc(Nc5ccnc(C)c5)c4n3CC3CC3)n(C)c12` (stereo partly drawn) [Example 163, ((7R)-7-amino-2-azabicyclo[2.2.1]heptan-2-yl)(2-(1-(cyclopropylmethyl)-7-((2-methylpyridin-4-yl)amino)-1H-indol-2-yl)-7-methoxy-1-methyl-1H-benzo[d]imidazol-5-yl)methanone] was 0.058 µM.
To `COc1cc(C(=O)N2CC3CCC2[C@@H]3N)cc2nc(-c3cc4cccc(Nc5ccc(CO)cc5)c4n3CC3CC3)n(C)c12` (stereo partly drawn) [Example 164, ((7R)-7-amino-2-azabicyclo[2.2.1]heptan-2-yl)(2-(1-(cyclopropylmethyl)-7-((4-(hydroxymethyl)phenyl)a-mino)-1H-indol-2-yl)-7-methoxy-1-methyl-1H-benzo[d]imidazol-5-yl)methanone] belongs 0.153 µM; to `COc1cc(C(=O)N2C[C@H]3CC[C@@H]2[C@@H]3N)cc2nc(-c3cc4cccc(Nc5cnn(CC(F)(F)F)c5)c4n3CC3CC3)n(C)c12` [Example 165, ((1R,4R,7R)-7-amino-2-azabicyclo[2.2.1]heptan-2-yl)(2-(1-(cyclopropylmethyl)-7-((1-(2,2,2-trifluoroethyl)-1H-pyrazol-4-yl)amino)-1H-indol-2-yl)-7-methoxy-1-methyl-1H-benzo[d]imidazol-5-yl)methanone], 0.075 µM; to `COc1cc(C(=O)N2CC3CCC2C3N)cc2nc(-c3cc4cccc(Nc5ccccc5P(C)(C)=O)c4n3CC3CC3)n(C)c12` (stereo not drawn) [Example 166, (7-amino-2-azabicyclo[2.2.1]heptan-2-yl)(2-(1-(cyclopropylmethyl)-7-((2-(dimethylphosphoryl)phe-nyl)amino)-1H-indol-2-yl)-7-methoxy-1-methyl-1H-benzo[d]imidazol-5-yl)methanone], 0.171 µM.
The value for `COc1cc(C(=O)N2CC3CCC2C3N)cc2nc(-c3cc4cccc(Nc5cnc(C#N)nc5)c4n3CC3CC3)n(C)c12` (stereo not drawn) [Example 167, 5-((2-(4-(7-amino-2-azabicyclo[2.2.1]heptane-2-carbonyl)-7-methoxy-1-methyl-1H-benzo[d]imidazol-2-yl)-1-(cyclopropyllmethyl)-1H-indol-7-yl)amino)pyrimidine-2-carbonitrile] was 0.138 µM.

As a reminder, the IC50 is the concentration that gives 50% inhibition. Read a low IC50 as greater potency.
